# Literature values, collected in patent US20040081632A1, “Novel antiperspirant/deodorant active for no white residue sticks and soft solids” (priority 2002, published 2004).
# Details: neat organic solvent
row,Molecule,RI
1,1-methyl 2-propanol,1.403
2,CCOCCO [2 ethoxy ethanol],1.407
3,COCCO [2 methoxy ethanol],1.402
4,COC(C)CCO (stereo not drawn) [3 methoxy butanol],1.411
5,CC(O)CO (stereo not drawn) [propylene glycol],1.430
6,CC(O)COC(C)COC(C)CO (stereo not drawn) [tripropylene glycol],1.454
